Reference: US20050282755A1, “Compositions having antimicrobial activity and uses thereof” (priority 2004, published 2005)
Converted amounts (≈) assume the structure as drawn. Starred links: 1 amine or outer side, 2 acyl side, 3 side chain; linkers in the order of their positions; H or OH if unused. Non-standard residues stand in square brackets, D forms with d. Residues, ends and D or L forms follow the SMILES beside them. *: point of attachment. Ethylenediamine = C(CN[*:2])N[*:1]; Palmitoyl = CCCCCCCCCCCCCCCC(=O)*; Lauroyl = CCCCCCCCCCCC(=O)*; Octanoyl = CCCCCCCC(=O)*; Hexanoyl = CCCCCC(=O)*

Tests used:
Assay type in all cases: cell-based
[1] = system: Candida albicans ATCC 18804; assay: MIC in yeasts, NCCLS M27-A2 broth microdilution, RPMI 1640 (Table 9, letter e); settings: ATCC 18804
How it was run: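 Broth microdilution per NCCLS M27-A2 in RPMI 1640 with glutamine and phenol red, final inoculum 0.5×10^3–2.5×10^3 CFU/milliliter. Incubated 24 to 48 hours at 37° C; MIC is the lowest peptide concentration with no visible growth.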

[2] = system: Propionibacterium acnes ATCC 6919; assay: MIC, agar dilution method NCCLS M11-A6, Brucella agar, anaerobic (Table 9, superscript c); settings: ATCC 6919
How it was run: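 Agar dilution per NCCLS M11-A6 on Brucella agar; final inoculum 1.5×10^8 CFU/milliliter applied to plates, incubated 48-96 hours at 37° C. under anaerobic (GasPak) conditions. MIC = lowest peptide concentration with no colony growth.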

[3] = system: Escherichia coli ATCC 25922; assay: MIC, NCCLS M7-A6 broth microdilution (Table 9, no superscript); settings: ATCC 25922
How it was run: (§1)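 CAMHB microdilution; final inoculum 5×10^5–1×10^6 CFU/milliliter from log-phase culture; overnight, 37° C; MIC = lowest peptide conc. without visible growth (turbidity) vs no-peptide control.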

[4] = system: Pseudomonas aeruginosa ATCC 27853; assay: as above; settings: ATCC 27853
How it was run: as §1

[5] = system: Staphylococcus epidermidis ATCC 12228; assay: as above; settings: ATCC 12228
How it was run: as §1

Salmonella dublin (Lane) = assay: as above
How it was run: as §1

[6] = system: Staphylococcus aureus ATCC 29213; assay: MIC, NCCLS M7-A6 broth microdilution, cation-adjusted Mueller Hinton broth (Table 9, no superscript); settings: ATCC 29213
How it was run: as §1

Compound | MIC C. albicans [1] | MIC P. acnes [2] | MIC E. coli [3] | MIC P. aeruginosa [4] | MIC S. epidermidis [5] | MIC S. dublin (Salmonella dublin (Lane)) | MIC S. aureus [6]
CCCCCCCCCCCC(=O)N[C@H](CCCNC(=N)N)C(=O)N[C@H](CC(=O)O)C(=O)N[C@@H](C(=O)N[C@H](C)C(=O)N[C@H](CCCNC(=N)N)C(=O)N[C@H](CC(N)=O)C(=O)N[C@H](Cc1ccccc1)C(=O)N[C@H](CCSC)C(=O)N[C@H](CCCNC(=N)N)C(N)=O)C(C)C [Peptide 128, Lauryl-rdvarnfmr-NH2] (Lauroyl-[dR][dD][dV][dA][dR][dN][dF][dM][dR]-NH2) | 32e ug/mL | 16c ug/mL | 32 µg/mL (≈ 23.8 µM) | 32 µg/mL (≈ 23.8 µM) | 8 µg/mL (≈ 5.94 µM) | 32 µg/mL (≈ 23.8 µM) | 16 µg/mL (≈ 11.9 µM)
CCCCCCCCCCCC(=O)NCCCC[C@@H](NC(=O)[C@@H](CCCNC(=N)N)NC(=O)[C@@H](CC(C)C)NC(=O)[C@@H](Cc1ccccc1)NC(=O)[C@@H](CC(N)=O)NC(=O)[C@@H](CCCNC(=N)N)NC(=O)[C@@H](C)NC(=O)[C@H](NC(=O)[C@@H](CC(=O)O)NC(=O)[C@@H](CCCNC(=N)N)NC(=O)[C@@H](Cc1c[nH]c2ccccc12)NC(=O)[C@@H](CCCNC(=N)N)NC(=O)[C@@H](CO)NC(=O)[C@H](N)CCCNC(=N)N)C(C)C)C(N)=O [Peptide 195, H2N-rsrwrdvarnflrk(Lauryl)-NH2] (H-[dR][dS][dR][dW][dR][dD][dV][dA][dR][dN][dF][dL][dR][dK](Lauroyl)-NH2) | 8e ug/mL | 8c ug/mL | 4 µg/mL (≈ 1.96 µM) | 4 µg/mL (≈ 1.96 µM) | 1 µg/mL (≈ 0.49 µM) | 4 µg/mL (≈ 1.96 µM) | 2 µg/mL (≈ 0.98 µM)
CCCCCC(=O)NCCNC(=O)[C@H](CCCNC(=N)N)NC(=O)[C@H](CC(C)C)NC(=O)[C@H](Cc1ccccc1)NC(=O)[C@H](CC(N)=O)NC(=O)[C@H](CCCNC(=N)N)NC(=O)[C@H](C)NC(=O)[C@@H](NC(=O)[C@H](CC(=O)O)NC(=O)[C@H](CCCNC(=N)N)NC(=O)[C@H](Cc1c[nH]c2ccccc12)NC(=O)[C@H](CCCNC(=N)N)NC(=O)[C@H](CO)NC(=O)[C@@H](N)CCCNC(=N)N)C(C)C [Peptide 168, H2N-RSRWRDVARNFLR-Ethylamidohexanyl] (H-RSRWRDVARNFLR-{Ethylenediamine-Hexanoyl}; C-terminus assumed) | 32e ug/mL | 64c ug/mL | 2 µg/mL (≈ 1.07 µM) | 32 µg/mL (≈ 17.1 µM) | 1 µg/mL (≈ 0.534 µM) | 16 µg/mL (≈ 8.55 µM) | 16 µg/mL (≈ 8.55 µM)
CCCCCCCCCCCCCCCC(=O)N[C@H](CCCNC(=N)N)C(=O)N[C@H](CO)C(=O)N[C@H](CCCNC(=N)N)C(=O)N[C@H](Cc1c[nH]c2ccccc12)C(=O)N[C@H](CCCNC(=N)N)C(=O)N[C@H](CC(=O)O)C(=O)N[C@@H](C(=O)N[C@H](C)C(=O)N[C@H](CCCNC(=N)N)C(=O)N[C@H](CC(N)=O)C(=O)N[C@H](Cc1ccccc1)C(=O)N[C@H](CCSC)C(=O)N[C@H](CCCNC(=N)N)C(N)=O)C(C)C [Peptide 209, Palmitoyl-rsrwrdvarnfmr-NH2] (Palmitoyl-[dR][dS][dR][dW][dR][dD][dV][dA][dR][dN][dF][dM][dR]-NH2) | 8e ug/mL | 32c ug/mL | >64 µg/mL | >64 µg/mL | 8 µg/mL (≈ 4.03 µM) | 32 µg/mL (≈ 16.1 µM) | 16 µg/mL (≈ 8.05 µM)
CCCCCCCCCCCC(=O)N[C@@H](CCCNC(=N)N)C(=O)N[C@@H](CO)C(=O)N[C@@H](CCCNC(=N)N)C(=O)N[C@@H](Cc1c[nH]c2ccccc12)C(=O)N[C@@H](CCCNC(=N)N)C(=O)N[C@@H](CC(=O)O)C(=O)N[C@H](C(=O)N[C@@H](C)C(=O)N[C@@H](CCCNC(=N)N)C(=O)N[C@@H](CC(N)=O)C(=O)N[C@@H](Cc1ccccc1)C(=O)N[C@@H](CCSC)C(N)=O)C(C)C [Peptide 98, Lauryl-RSRWRDVARNFM-NH2] (Lauroyl-RSRWRDVARNFM-NH2) | 16e ug/mL | >64c ug/mL | 16 µg/mL (≈ 9.01 µM) | 64 µg/mL (≈ 36.1 µM) | 8 µg/mL (≈ 4.51 µM) | 16 µg/mL (≈ 9.01 µM) | 4 µg/mL (≈ 2.25 µM)
CCCCCCCCCCCC(=O)N[C@H](CCCNC(=N)N)C(=O)N[C@H](CO)C(=O)N[C@H](CCCNC(=N)N)C(=O)N[C@H](Cc1c[nH]c2ccccc12)C(=O)N[C@H](CCCNC(=N)N)C(=O)N[C@H](CCC(=O)O)C(=O)N[C@@H](C(=O)N[C@H](C)C(=O)N[C@H](CCCNC(=N)N)C(=O)N[C@H](CC(N)=O)C(=O)N[C@H](Cc1ccccc1)C(=O)N[C@H](CC(C)C)C(=O)N[C@H](CCCNC(=N)N)C(N)=O)C(C)C [Peptide 221, Lauryl-rsrwrevarnflr-NH2] (Lauroyl-[dR][dS][dR][dW][dR][dE][dV][dA][dR][dN][dF][dL][dR]-NH2) | 2e ug/mL | 32c ug/mL | 8 µg/mL (≈ 4.15 µM) | 8 µg/mL (≈ 4.15 µM) | 2 µg/mL (≈ 1.04 µM) | 8 µg/mL (≈ 4.15 µM) | 4 µg/mL (≈ 2.08 µM)
CCCCCCCCCCCC(=O)N[C@H](CCCNC(=N)N)C(=O)N[C@H](CO)C(=O)N[C@H](CCCNC(=N)N)C(=O)N[C@H](Cc1c[nH]c2ccccc12)C(=O)N[C@H](CCCNC(=N)N)C(=O)N[C@H](CC(=O)O)C(=O)N[C@@H](C(=O)N[C@H](C)C(=O)N[C@H](CCCNC(=N)N)C(=O)N[C@H](CC(N)=O)C(=O)N[C@H](Cc1ccccc1)C(N)=O)C(C)C [Peptide 116, Lauryl-rsrwrdvarnf-NH2] (Lauroyl-[dR][dS][dR][dW][dR][dD][dV][dA][dR][dN][dF]-NH2) | 32e ug/mL | 8c ug/mL | 8 µg/mL (≈ 4.87 µM) | 8 µg/mL (≈ 4.87 µM) | 4 µg/mL (≈ 2.43 µM) | 8 µg/mL (≈ 4.87 µM) | 8 µg/mL (≈ 4.87 µM)
CCCCCCCC(=O)NCCCC[C@@H](NC(=O)[C@@H](CCCNC(=N)N)NC(=O)[C@@H](CCSC)NC(=O)[C@@H](Cc1ccccc1)NC(=O)[C@@H](CC(N)=O)NC(=O)[C@@H](CCCNC(=N)N)NC(=O)[C@@H](C)NC(=O)[C@H](NC(=O)[C@@H](CC(=O)O)NC(=O)[C@@H](CCCNC(=N)N)NC(=O)[C@@H](Cc1c[nH]c2ccccc12)NC(=O)[C@@H](CCCNC(=N)N)NC(=O)[C@@H](CO)NC(=O)[C@H](N)CCCNC(=N)N)C(C)C)C(N)=O [Peptide 198, H2N-rsrwrdvarnfmrk(Octanyl)-NH2] (H-[dR][dS][dR][dW][dR][dD][dV][dA][dR][dN][dF][dM][dR][dK](Octanoyl)-NH2) | 64e ug/mL | 16c ug/mL | 16 µg/mL (≈ 7.99 µM) | 64 µg/mL (≈ 31.9 µM) | 4 µg/mL (≈ 2 µM) | 32 µg/mL (≈ 16 µM) | 16 µg/mL (≈ 7.99 µM)
CCCCCCCCCCCC(=O)N[C@H](CCCNC(=N)N)C(=O)N[C@H](CO)C(=O)N[C@H](C)C(=O)N[C@H](Cc1c[nH]c2ccccc12)C(=O)N[C@H](CCCNC(=N)N)C(=O)N[C@H](CC(=O)O)C(=O)N[C@@H](C(=O)N[C@H](C)C(=O)N[C@H](CCCNC(=N)N)C(=O)N[C@H](CC(N)=O)C(=O)N[C@H](Cc1ccccc1)C(=O)N[C@H](CCSC)C(=O)N[C@H](CCCNC(=N)N)C(N)=O)C(C)C [Peptide 238, Lauryl-rsawrdvarnfmr-NH2] (Lauroyl-[dR][dS][dA][dW][dR][dD][dV][dA][dR][dN][dF][dM][dR]-NH2) | 16e ug/mL | 32c ug/mL | 8 µg/mL (≈ 4.33 µM) | 64 µg/mL (≈ 34.7 µM) | 8 µg/mL (≈ 4.33 µM) | 8 µg/mL (≈ 4.33 µM) | 8 µg/mL (≈ 4.33 µM)
CCCCCCCCCCCC(=O)N[C@H](CCCNC(=N)N)C(=O)N[C@H](Cc1c[nH]c2ccccc12)C(=O)N[C@H](CCCNC(=N)N)C(=O)N[C@H](CC(=O)O)C(=O)N[C@@H](C(=O)N[C@H](C)C(=O)N[C@H](CCCNC(=N)N)C(N)=O)C(C)C [Peptide 122, Lauryl-rwrdvar-NH2] (Lauroyl-[dR][dW][dR][dD][dV][dA][dR]-NH2) | 32e ug/mL | 32c ug/mL | 64 µg/mL (≈ 56.2 µM) | 16 µg/mL (≈ 14 µM) | 8 µg/mL (≈ 7.02 µM) | 32 µg/mL (≈ 28.1 µM) | 8 µg/mL (≈ 7.02 µM)
